Structures can show the parent of a compound that is named as a salt.
What was measured:
[1] = Solid state stability testing (storage at elevated temperature and humidity); type: physicochemical
Experimental: Samples (250 mg each) of the monoHCl salt of Examples 9 and 10 were stored at 40° C. and 75% relative humidity in open containers and in closed containers. Additional samples (100 mg each) of the monoHCl salt were stored at 50° C. in closed containers. […] Water percentage of the samples stored at 40° C. was less than 0.25% after two and four weeks of storage.
The differential scanning calorimetry trace of Example 14, shown in FIG. 2 was obtained with a TA instruments model DSC2010. Samples were placed in sealed aluminum pans for analysis with an empty pan serving as the reference. Samples were equilibrated at 30° C. and heated at 5° C. per minute to a temperature of 300° C. The instrument was calibrated with an indium standard.
Thermogravimetric analysis was conducted using a TA instruments model Q50. Samples were weighed in aluminum pans and heated from 50° C. to 300° C. at a rate of 10° C./min.
HPLC analysis was conducted using a MAC MOD Ace-5, C18, 25 cm×4.6 mm, 5 μm column, equilibrated at 30° C. The mobile phases used were: A: 0.1% TFA in 98:2 water:acetonitrile; and B: 0.1% TFA in 10:90 water:acetonitrile. Detection was by UV absorbance at 244 nm. The initial condition was 6% phase B. A flow rate of 1.0 mL/min and gradients of 6 to 30% B over 25 min, 30% to 60% B in 10 min and 60% to 100% B in 2 min were utilized. The monoHCl salt of compound 1 gave a retention time of 19.1 min.
Water content was determined by coulometric Karl Fischer titration using a Brinkman Metrohm Karl Fischer Model 831 coulometer.

[2] = Hygroscopicity / deliquescence on exposure to the atmosphere at high relative humidity; type: physicochemical; conditions: exposed to the atmosphere for prolonged periods at high relative humidity
[3] = all storage conditions: 40° C. and 75% relative humidity in open and closed containers, 50° C. in closed containers, after four weeks

## O=CNc1cc([C@@H](O)CNCCc2ccc(NC[C@H](O)c3ccccc3)cc2)ccc1O [monohydrochloride salt of compound 1, N-{2-[4-((R)-2-hydroxy-2-phenylethylamino)phenyl]ethyl}-(R)-2-hydroxy-2-(3-formamido-4-hydroxyphenyl)ethylamine monohydrochloride]
[1]; [3]
  analysis by DSC and TGA: no detectable differneces
  change in the appearance of the material: no observable change
  chemical degradation, analysis by HPLC: no detectable chemical degradation
[1]; at elevated temperatures
  thermal stability: thermally stable
[1]; four weeks at 40° C. and 75% humidity in open and closed containers and at 50° C. in a closed container
  analysis by DSC: no detectable difference
[1]; four weeks at 40° C. and 75% humidity in open and closed containers and at 50° C. in a closed container, summary statement
  chemical degradation, analysis by HPLC: no appreciable chemical degradation
[1]; samples stored at 40° C. (75% relative humidity), after two and four weeks of storage, Karl Fischer
  Water percentage of the samples: less than 0.25%
[2]
  hygroscopicity / deliquescence: neither hygroscopic nor deliquescent

Source: patent publication US7772434B2, “Crystalline form of a β2 adrenergic receptor agonist” (Theravance, Inc., priority 2003, dated 2010)
